Legend:
[1] = test system: ERK and MEK phosphorylation; assay: UVA-induced phosphorylation of ERK and MEK in HaCaT after PKCδ inhibitor pretreatment; type: cell-based, human; conditions: HaCaT pretreated with PKCδ inhibitor, then UVA irradiation
Experimental: (§1) The present inventors clarified an expression mechanism of MMP-1 through an experiment. […] The experiment was performed by irradiating HaCaT (epidermal keratinocyte cell line established from a human adult under special ca 2+ concentration and temperature conditions) with ultraviolet rays (UVA).
However, when a pretreatment of adding rotterlin being a PKCδ inhibitor to HaCaT was performed, and then UVA irradiation was performed on HaCaT, induced expression of phosphorylation of ERK and MEK was suppressed. Therefore, it was clarified that: the activity of PKCδ induces phosphorylation of MEK and ERK downstream of PKC6; and expression of MMP-1 is promoted through c-Jun and the like.

MMP-1 expression = assay: UVA-induced MMP-1 expression in HaCaT after PKCδ inhibitor pretreatment; type: cell-based, human; conditions: HaCaT pretreated with PKCδ inhibitor, then UVA irradiation
Experimental: as §1
When UVA irradiation is performed on HaCaT, the MMP-1 expression amount increases in an irradiation-dependent manner. […] Therefore, it was clarified that PKCδ is involved in expression pathway of MMP-1.

CC(=O)c1c(O)c(C)c(O)c(Cc2c(O)c3c(c(C(=O)/C=C/c4ccccc4)c2O)OC(C)(C)C=C3)c1O [rotterlin]
induced expression of phosphorylation of ERK and MEK [1]: suppressed
MMP-1 expression (MMP-1 expression): significantly suppressed

From patent US20240066085A1, “MATRIX METALLOPROTEASE 1 EXPRESSION INHIBITOR, SKIN EXTERNAL AGENT, AND USE FOR INHIBITION OF MATRIX METALLOPROTEASE 1 EXPRESSION” (NATIONAL UNIVERSITY CORPORATION KOBE UNIVERSITY, priority 2020, published 2024)
